Measured values reported in patent US4346076A, “Bis-tetrazoylmethyl substituted cephalosporin antibiotics” (Eli Lilly and Company, priority 1980, dated 1982).
In brackets after ≈: the same amount, converted by molar mass. Read-outs that look alike come from different tables or passages of the source.

Tests used:
Experiment in all cases: in vitro antibacterial activity, agar dilution
Format in all cases: cell-based
[1] = system: Bordetella bronchoseptica; details: strain 16, read-out: Minimum Inhibitory Concentration
Excerpt: (§1) The bis-tetrazol-thiomethyl substituted cephalosporins of this invention are broad spectrum antibiotics which inhibit the growth of both gram positive and gram negative microorganisms which are pathogenic to man and animals. […] The following Table 2 lists the minimum inhibitory concentrations of representative compounds of the invention.
(§2) The data in TABLE 2 were obtained in the agar dilution test method using Mueller-Hinton agar containing two percent Supplement C (Difco). Serial two-fold dilutions were run with the highest concentration on test at 128 mcg/ml.

Citrobacter freundii = details: strain CF17, read-out: Minimum Inhibitory Concentration
Excerpt: as §1, §2

Enterobacter aerogenes = details: Klebsiella aerogenes, read-out: Minimum Inhibitory Concentration
Excerpt: as §1, §2

Enterobacter cloacae = system: Enterobacter cloacae
Excerpt: as §1, §2

Escherichia coli = system: Escherichia coli
Excerpt: as §1, §2

Haemophilus influenzae = details: Haemophilus influenzae, read-out: Minimum Inhibitory Concentration
Excerpt: as §1, §2

Klebsiella sp. = system: Klebsiella sp.
Excerpt: as §1, §2

Proteus inconstans = details: Providencia alcalifaciens; strain PR33; read-out: Minimum Inhibitory Concentration
Excerpt: as §1, §2

Proteus morganii = details: Morganella morganii; strain PR15; read-out: Minimum Inhibitory Concentration
Excerpt: as §1, §2

Proteus rettgeri = details: Providencia rettgeri, read-out: Minimum Inhibitory Concentration
Excerpt: as §1, §2

Pseudomonas aeruginosa = system: Pseudomonas aeruginosa
Excerpt: as §1, §2

Salmonella sp. = system: Salmonella sp.
Excerpt: as §1, §2

Serratia marcescens = system: Serratia marcescens
Excerpt: as §1, §2

Shigella sonnei = details: strain N9, read-out: Minimum Inhibitory Concentration
Excerpt: as §1, §2

Staphylococcus aureus = system: Staphylococcus aureus
Excerpt: as §1, §2

[2] = system: Staphylococcus epidermidis
Excerpt: as §1, §2

Streptococcus Group A = details: strain C203; read-out: Minimum Inhibitory Concentration
Excerpt: as §1, §2

Streptococcus Group D = details: read-out: Minimum Inhibitory Concentration
Excerpt: as §1, §2

Streptococcus pneumoniae = details: strain PARK, read-out: Minimum Inhibitory Concentration
Excerpt: as §1, §2

[3] = strain 265A, read-out: Minimum Inhibitory Concentration
[4] = strain EB5, read-out: Minimum Inhibitory Concentration
[5] = strain EC14, read-out: Minimum Inhibitory Concentration
[6] = strain N10, read-out: Minimum Inhibitory Concentration
[7] = strain TEM, read-out: Minimum Inhibitory Concentration
[8] = strain KAE, read-out: Minimum Inhibitory Concentration
[9] = strain X26, read-out: Minimum Inhibitory Concentration
[10] = strain Ps18, read-out: Minimum Inhibitory Concentration
[11] = strain X239, read-out: Minimum Inhibitory Concentration
[12] = strain X528, read-out: Minimum Inhibitory Concentration
[13] = strain 1335, read-out: Minimum Inhibitory Concentration
[14] = strain X514, read-out: Minimum Inhibitory Concentration
[15] = strain SE3, read-out: Minimum Inhibitory Concentration
[16] = strain X93, read-out: Minimum Inhibitory Concentration
[17] = read-out: Minimum Inhibitory Concentration
[18] = strain V41, read-out: Minimum Inhibitory Concentration
[19] = strain X1.1, read-out: Minimum Inhibitory Concentration
[20] = strain X400, read-out: Minimum Inhibitory Concentration
[21] = strain EPI1, read-out: Minimum Inhibitory Concentration
[22] = strain EPI2, read-out: Minimum Inhibitory Concentration

Question: For `O=CO[C@@H](C(=O)N[C@@H]1C(=O)N2C(C(=O)O)=C(CSc3nnnn3Cc3nnn[nH]3)CS[C@H]12)c1ccccc1` [C], which MIC [1] is on record?
Answer: Its MIC is 16 µg/mL (≈ 28.6 µM).

Question: And the MIC (Citrobacter freundii)?
Answer: The MIC was over 128 µg/mL.

Question: And the MIC (Enterobacter aerogenes; strain C32)?
Answer: The MIC was 4 µg/mL (≈ 7.16 µM).

Question: What about the MIC (Enterobacter aerogenes; strain EB17) of the same molecule?
Answer: Its MIC is 2 µg/mL (≈ 3.58 µM).

Question: What about the MIC (Enterobacter aerogenes; strain X68) of the same molecule?
Answer: The MIC was 0.25 µg/mL (≈ 0.448 µM).

Question: And the MIC (Enterobacter cloacae; [3])?
Answer: The MIC was over 128 µg/mL.

Question: And the MIC (Enterobacter cloacae; [4])?
Answer: Its MIC is 128 µg/mL (≈ 229 µM).

Question: And the MIC (Escherichia coli; [5])?
Answer: Its MIC is 0.25 µg/mL (≈ 0.448 µM).

Question: What about the MIC (Escherichia coli; [6]) of the same molecule?
Answer: The MIC was 2 µg/mL (≈ 3.58 µM).

Question: What about the MIC (Escherichia coli; [7]) of the same molecule?
Answer: The MIC was 8 µg/mL (≈ 14.3 µM).

Question: And the MIC (Haemophilus influenzae; strain 251, resistant strain)?
Answer: The MIC was 4 µg/mL (≈ 7.16 µM).

Question: And the MIC (Haemophilus influenzae; strain Brun, sensitive strain)?
Answer: Its MIC is 4 µg/mL (≈ 7.16 µM).

Question: What about the MIC (Klebsiella sp.; [8]) of the same molecule?
Answer: Its MIC is over 128 µg/mL.

Question: And the MIC (Klebsiella sp.; [9])?
Answer: The MIC was 2 µg/mL (≈ 3.58 µM).

Question: And the MIC (Proteus inconstans)?
Answer: Its MIC is 2 µg/mL (≈ 3.58 µM).

Question: And the MIC (Proteus morganii)?
Answer: Its MIC is 2 µg/mL (≈ 3.58 µM).

Question: What about the MIC (Proteus rettgeri; strain C24) of the same molecule?
Answer: Its MIC is 0.5 µg/mL (≈ 0.895 µM).

Question: What about the MIC (Proteus rettgeri; strain PR7) of the same molecule?
Answer: The MIC was 4 µg/mL (≈ 7.16 µM).

Question: And the MIC (Pseudomonas aeruginosa; [10])?
Answer: The MIC was over 128 µg/mL.

Question: And the MIC (Pseudomonas aeruginosa; [11])?
Answer: Its MIC is over 128 µg/mL.

Question: What about the MIC (Pseudomonas aeruginosa; [12]) of the same molecule?
Answer: The MIC was over 128 µg/mL.

Question: And the MIC (Salmonella sp.; [13])?
Answer: Its MIC is 2 µg/mL (≈ 3.58 µM).

Question: And the MIC (Salmonella sp.; [14])?
Answer: The MIC was 1 µg/mL (≈ 1.79 µM).

Question: What about the MIC (Serratia marcescens; [15]) of the same molecule?
Answer: The MIC was over 128 µg/mL.

Question: And the MIC (Serratia marcescens; [16])?
Answer: The MIC was 32 µg/mL (≈ 57.3 µM).

Question: And the MIC (Shigella sonnei)?
Answer: Its MIC is 1 µg/mL (≈ 1.79 µM).

Question: And the MIC (Staphylococcus aureus; [17])?
Answer: The MIC was 16 µg/mL (≈ 28.6 µM).

Question: And the MIC (Staphylococcus aureus; [18])?
Answer: Its MIC is 8 µg/mL (≈ 14.3 µM).

Question: And the MIC (Staphylococcus aureus; [19])?
Answer: Its MIC is 1 µg/mL (≈ 1.79 µM).

Question: And the MIC (Staphylococcus aureus; [20])?
Answer: The MIC was 128 µg/mL (≈ 229 µM).

Question: And the MIC [2, 21]?
Answer: Its MIC is 8 µg/mL (≈ 14.3 µM).

Question: What about the MIC [2, 22] of the same molecule?
Answer: The MIC was 32 µg/mL (≈ 57.3 µM).

Question: And the MIC (Streptococcus Group A)?
Answer: Its MIC is 0.5 µg/mL (≈ 0.895 µM).

Question: What about the MIC (Streptococcus Group D; strain 9960) of the same molecule?
Answer: The MIC was 128 µg/mL (≈ 229 µM).

Question: What about the MIC (Streptococcus Group D; strain X66) of the same molecule?
Answer: The MIC was over 128 µg/mL.

Question: What about the MIC (Streptococcus pneumoniae) of the same molecule?
Answer: Its MIC is 0.25 µg/mL (≈ 0.448 µM).

Question: Which results are given for `Cn1nnnc1Cn1nnnc1SCC1=C(C(=O)O)N2C(=O)[C@@H](NC(=O)Cc3cccs3)[C@H]2SC1` [B]?
Answer: MIC [1]: 8 µg/mL (≈ 15 µM); MIC (Citrobacter freundii): > 128 µg/mL; MIC (Enterobacter aerogenes; strain C32): 32 µg/mL (≈ 59.9 µM); MIC (Enterobacter aerogenes; strain EB17): 16 µg/mL (≈ 29.9 µM); MIC (Enterobacter aerogenes; strain X68): 0.5 µg/mL (≈ 0.935 µM); MIC (Enterobacter cloacae; [3]): > 128 µg/mL; MIC (Enterobacter cloacae; [4]): > 128 µg/mL; MIC (Escherichia coli; [5]): 2 µg/mL (≈ 3.74 µM); MIC (Escherichia coli; [6]): 4 µg/mL (≈ 7.48 µM); MIC (Escherichia coli; [7]): 8 µg/mL (≈ 15 µM); MIC (Haemophilus influenzae; strain 76, resistant strain): 0.5 µg/mL (≈ 0.935 µM); MIC (Haemophilus influenzae; strain C.L., sensitive strain): 1 µg/mL (≈ 1.87 µM); MIC (Klebsiella sp.; [8]): > 128 µg/mL; MIC (Klebsiella sp.; [9]): 0.5 µg/mL (≈ 0.935 µM); MIC (Proteus inconstans): 64 µg/mL (≈ 120 µM); MIC (Proteus morganii): 64 µg/mL (≈ 120 µM); MIC (Proteus rettgeri; strain C24): 8 µg/mL (≈ 15 µM); MIC (Proteus rettgeri; strain PR7): 4 µg/mL (≈ 7.48 µM); MIC (Pseudomonas aeruginosa; [10]): > 128 µg/mL; MIC (Pseudomonas aeruginosa; [11]): > 128 µg/mL; MIC (Pseudomonas aeruginosa; [12]): > 128 µg/mL; MIC (Salmonella sp.; [13]): 1 µg/mL (≈ 1.87 µM); MIC (Salmonella sp.; [14]): 0.5 µg/mL (≈ 0.935 µM); MIC (Serratia marcescens; [15]): > 128 µg/mL; MIC (Serratia marcescens; [16]): > 128 µg/mL; MIC (Shigella sonnei): 4 µg/mL (≈ 7.48 µM); MIC (Staphylococcus aureus; [17]): 4 µg/mL (≈ 7.48 µM); MIC (Staphylococcus aureus; [18]): 2 µg/mL (≈ 3.74 µM); MIC (Staphylococcus aureus; [19]): 0.5 µg/mL (≈ 0.935 µM); MIC (Staphylococcus aureus; [20]): 32 µg/mL (≈ 59.9 µM); MIC [2, 21]: 4 µg/mL (≈ 7.48 µM); MIC [2, 22]: 4 µg/mL (≈ 7.48 µM); MIC (Streptococcus Group A): 1 µg/mL (≈ 1.87 µM); MIC (Streptococcus Group D; strain 9960): 64 µg/mL (≈ 120 µM); MIC (Streptococcus Group D; strain X66): 128 µg/mL (≈ 239 µM); MIC (Streptococcus pneumoniae): 2 µg/mL (≈ 3.74 µM)

Question: Which results are given for `CO/N=C(\C(=O)N[C@@H]1C(=O)N2C(C(=O)O)=C(CSc3nnn(Cc4nnn[nH]4)n3)CS[C@H]12)c1csc(N)n1` [G, syn 7β-[α-methoximino-α-(2-amino-1,3-thiazol-4-yl)-acetamido]-3-[2-(1H-tetrazol-5-ylmethyl)-2H-tetrazol-5-ylthiomethyl]-3-cephem-4-carboxylic acid]?
Answer: MIC [1]: 64 µg/mL (≈ 110 µM); MIC (Citrobacter freundii): 64 µg/mL (≈ 110 µM); MIC (Enterobacter aerogenes; strain C32): 0.25 µg/mL (≈ 0.431 µM); MIC (Enterobacter aerogenes; strain EB17): 0.25 µg/mL (≈ 0.431 µM); MIC (Enterobacter aerogenes; strain X68): 0.06 µg/mL (≈ 0.104 µM); MIC (Enterobacter cloacae; [3]): 64 µg/mL (≈ 110 µM); MIC (Enterobacter cloacae; [4]): 2 µg/mL (≈ 3.45 µM); MIC (Escherichia coli; [5]): 0.125 µg/mL (≈ 0.216 µM); MIC (Escherichia coli; [6]): 0.25 µg/mL (≈ 0.431 µM); MIC (Escherichia coli; [7]): 0.125 µg/mL (≈ 0.216 µM); MIC (Haemophilus influenzae; strain 251, resistant strain): 0.06 µg/mL (≈ 0.104 µM); MIC (Haemophilus influenzae; strain Brun, sensitive strain): 0.06 µg/mL (≈ 0.104 µM); MIC (Klebsiella sp.; [8]): 8 µg/mL (≈ 13.8 µM); MIC (Klebsiella sp.; [9]): 0.125 µg/mL (≈ 0.216 µM); MIC (Proteus inconstans): 1 µg/mL (≈ 1.73 µM); MIC (Proteus morganii): 0.5 µg/mL (≈ 0.863 µM); MIC (Proteus rettgeri; strain C24): 2 µg/mL (≈ 3.45 µM); MIC (Proteus rettgeri; strain PR7): 0.03 µg/mL (≈ 0.0518 µM); MIC (Pseudomonas aeruginosa; [10]): 32 µg/mL (≈ 55.2 µM); MIC (Pseudomonas aeruginosa; [11]): 16 µg/mL (≈ 27.6 µM); MIC (Pseudomonas aeruginosa; [12]): 16 µg/mL (≈ 27.6 µM); MIC (Salmonella sp.; [13]): 0.5 µg/mL (≈ 0.863 µM); MIC (Salmonella sp.; [14]): 0.125 µg/mL (≈ 0.216 µM); MIC (Serratia marcescens; [15]): 2 µg/mL (≈ 3.45 µM); MIC (Serratia marcescens; [16]): 0.25 µg/mL (≈ 0.431 µM); MIC (Shigella sonnei): 2 µg/mL (≈ 3.45 µM); MIC (Staphylococcus aureus; [17]): 32 µg/mL (≈ 55.2 µM); MIC (Staphylococcus aureus; [18]): 8 µg/mL (≈ 13.8 µM); MIC (Staphylococcus aureus; [19]): 4 µg/mL (≈ 6.9 µM); MIC (Staphylococcus aureus; [20]): > 128 µg/mL; MIC [2, 21]: 32 µg/mL (≈ 55.2 µM); MIC [2, 22]: 64 µg/mL (≈ 110 µM); MIC (Streptococcus Group A): 0.03 µg/mL (≈ 0.0518 µM); MIC (Streptococcus Group D; strain 9960): > 128 µg/mL; MIC (Streptococcus Group D; strain X66): > 128 µg/mL; MIC (Streptococcus pneumoniae): 0.03 µg/mL (≈ 0.0518 µM)
